# Experimental data from paper PMC9875641, “Ophthalmic Solution of Smart Supramolecular Peptides to Capture Semaphorin 4D against Diabetic Retinopathy” (Advanced Science, 2022).
# How the values were obtained:
# [1] = Intraocular distribution and retention after topical instillation; type: in vivo, mouse; details: for presence (retention) in the mice vitreous humor: FITC-labeled peptide eye drops, fluorescence of vitreous humor at different time points, n = 3 (each sample from 5 mice); for intraocular distribution of fluorescence after topical instillation: FITC-labeled peptide, 10 µL eye drop once, 12 h after instillation, fluorescence and LC/MS
# Procedure: To study the intraocular distribution of the FITC‐labeled SSP‐1 and SSP‐2 after topical instillation, fluorescence observation and liquid chromatography‐mass spectrometry (LC/MS) were performed on the entire eyes of mice, the frozen sections of the eyes, and their vitreous humor (Figure 7A–D). […] The topical instillation of SSP eye drop was instilled once with 10 µL before fluorescence observation. However, intraocular injection was administrated once with the maximum volume of 2 µL to avoid overdose induced high intraocular pressure due to the limited volume of the vitreous cavity. […] Next, we studied the intraocular pharmacokinetics of SSP‐1 and SSP‐2 after topical instillation. […] Moreover, we established an in vitro blood‐retina barrier (BRB) model to investigate the transferring efficiency of SSP‐1 and SSP‐2 across the posterior ocular absorption barriers. […]
# Intraocular Distribution of FG/FH. Male mice (20-25 g) derived from Charles River (Beijing, China) were used in this experiment. 10 μL FITC-labeled FH or FG (dissolved in artificial tear fluid, 20 nM) were gently dripped in the conjunctival sac.
# The upper and lower eyelids were massaged to make homodisperse on the eye surface. After 12h FITC-labeled FH or FG were instilled, the mice were sacrificed and the eyeballs were wash in the PBS solution. luminescence signal was detected via the In-Vivo FX PRO system (Bruker).
# (§1) Statistical analysis. Statistical analysis was conducted using Graphpad Prism 8.0 software. All data were expressed by mean ± SD. Unpaired two-tailed Student’s t-test (two groups) or one-way ANOVA (more than 2 groups) was used to analyze the statistical significances of the data. Person’s correlation analysis was conducted to […]
# [2] = tested on: mouse brain microvascular endothelial cells (MBMEC); assay: CCK-8 cytotoxicity; type: cell-based; details: CCK-8, 24 h incubation, concentrations up to 80 × 10^−6 M
# Procedure: In addition, KLVFF sequence, a sheet structure with strong hydrogen‐bonding was introduced into SSPs, we could distinctly observe the secondary structure of SSPs by circular dichroism (CD) spectroscopy. […] The percentage of β‐sheet after incubation with sSema4D in SSP‐1 and SSP‐2 were 85.6% and 42.3%, respectively, indicative of a highly organized packing of NFs in SSP‐1. […] The high percentage of β‐sheet structure in NFs stabilized the formation of nanostructure networks, due to its strong hydrogen‐bonding KLVFF sequence. Moreover, we carried out the cytotoxicity of SSP‐1 and SSP‐2 by using a standard CCK‐8 (Figure 3D). […] Finally, we investigated the recognition of sSema4D and SSP‐1 and SSP‐2 by confocal laser scanning microscope (CLSM). […]
# pericytes were cultured in Pericyte Medium (ScienCell, USA). bEnd.3 cells were purchased from ATCC and grown in DMEM with 10% fetal bovine serum.
# Preparation method of nanoparticles. The nanomaterials FG-12 and FH-12 were added to a 1:1 mixture of propylene glycol and ethanol solution to form a 2 mM mother liquor. The mother solution was diluted in normal saline at 1:100 dilution to form a 20 μM nanoparticle solution. […]
# solution was added. After 2 h incubation with CCK8 solution at 37℃ in a 5% CO2 atmosphere, the […] was evaluated by a fluorescence microplate reader (PerkinElmer, Waltham, MA, USA). real-time PCR. […]
# [3] = tested on: STZ model; assay: STZ-induced retinopathy model, retinal vascular leakage; type: in vivo, mouse; details: for reduction of retinal vascular leakage by eye drops plus anti-VEGF injection compared with anti-VEGF injection alone: Evans blue, anti-VEGF antibody 2 µg intravitreal at third month, eye drops twice a day for 30 d, on average; for reduction of retinal vascular leakage by eye drops plus anti-VEGF injection compared with anti-VEGF injection alone / vascular leakage (Evans blue assay): n = 9; for diabetes-induced retinal acellular capillary formation: eye drops 10 µL per eye twice daily for 30 d, PDGFRb/collagen IV staining, n = 6
# Procedure: follows: 5’-[…]-3’, 5’-
# STZ. Eight-week-old male C57BL/6 mice were starved for 4 hours before each […]
# injection of streptozotocin (STZ, Sigma, St. Louis, MO), and then injected with STZ […]
# (50 mg/kg) for 5 consecutive days. Mice in the vehicle control group were […]
# intraperitoneally injected with citrate buffer for 5 consecutive days. A blood glucose […]
# meter (ONETOUCH, Johnson & Johnson, USA) was used to evaluate the fasting […]
# blood glucose of the mice 7 days after the last injection of STZ. Mice with blood […]
# glucose levels greater than or equal to 16.7 mM were considered successful in STZ […]
# modeling. […]
# Evans blue assay. Mice were intraperitoneally injected with Evans Blue dye (200 mg/kg) and circulated for 5 hours. The mice were perfused with PBS, and the eyes were fixed with 4% PFA at 4 degrees Celsius for 12 hours, and the retina was separated. Some retinas are tested for Evans Blue fluorescence using a fluorescence microscope. Adding formamide (70 μL/piece) to the rest of the retina and incubate overnight at 70°C to extract the […]. Detect the absorbance of formamide at 620/740 nm (background) with a microplate reader. Calculate the content of Evans blue in the retina from the standard curve, and then standardize it based on the weight of the retina and the content of Evans blue in the blood. […]
# as §1
# [4] = tested on: endothelial cells; assay: Wound-healing and transwell migration of endothelial cells induced by recombinant Sema4D; type: cell-based, mouse; details: wound-healing and transwell assays, n = 3; effect equal to anti-Sema4D antibody
# [5] = TEM morphology and size of SSP nanostructures; type: physicochemical; details: for morphology after incubation with sSema4D: sSema4D 6 h, room temperature, mass ratio sSema4D/SSP 1/1000
# Procedure: TP-1 to TP-12, SSP-1 and SSP-2 […]
# were purchased by GL Biochem (Shanghai) Ltd.
# Preparation of peptide-based nanomaterials. SSP-1 or SSP-2 monomers were dissolved in artificial tears at a concentration of 4.0 mM and sonicated for 30 min, followed by quick injection into water at a volume ratio of 1:200 for artificial tears and H2O to obtain the nanomaterials solution (20 μM).
# TEM for the morphology. The SSP-1 or SSP-2 solution with the concentration of 20 μM (10 μL) was placed dropwise onto a copper mesh for 5 min, then most of the liquid was removed through a filter paper. Uranyl acetate solution (10 μL) were employed to stain the samples for 5 min, followed by drying the spare liquid with the filter. Finally, the copper mesh was washed with 10 μL of deionized water, which was blotted after staining and drying at room temperature. All of the samples were observed by TEM (Tecnai G2 20 S-TWIN) at an accelerating voltage of 120 kV. […]
# [6] = eye drops 10 µL per eye twice daily for 30 d after third month since diabetes induction, equal to intraocular anti-Sema4D antibody
# [7] = intravitreal injection at third month since diabetes induction, retinas at fourth month, similar to anti-Sema4D antibody
# [8] = self-assembled in water, 20 μM, without sSema4D
presence (retention) in the mice vitreous humor [1],intraocular distribution of fluorescence after topical instillation [1],morphology after incubation with sSema4D [5],"average length of nanorods [5, 8]","average size of NPs [5, 8]",Substance,viability of MBMEC [2],reduction of retinal vascular leakage by eye drops plus anti-VEGF injection compared with anti-VEGF injection alone [3],diabetes-induced retinal acellular capillary formation [3],"vascular leakage (Evans blue assay) [3, 6]","vascular leakage (Evans blue assay) [3, 7]",recombinant Sema4D protein-induced endothelial cell migration [4]
up to 5 days,mainly in the retina and vitreous humor,long‐size of nanofibrillar structures,190 ± 23.9 nm,–,"C16‐FFVLK‐KNKAAKG [SSP-2, smart supramolecular peptide, C16‐FFVLK‐KNKAAKG, self-assembling, captures sSema4D]",~90%,15.49%,ameliorated,significantly decreased,significantly decreased,inhibited
up to 5 days,mainly in the retina and vitreous humor,dense NFs network structures,–,44.8 ± 2.9 nm,"C16‐FFVLK‐KQKRPRH [SSP-1, smart supramolecular peptide, C16‐FFVLK‐KQKRPRH, self-assembling, captures sSema4D]",~90%,20.21%,ameliorated,significantly decreased,significantly decreased,inhibited
